Data reported in patent US12448371B2, “Inhibitor compounds” (Cincera Therapeutics Pty Ltd, priority 2019, dated 2025).
Where two headings read alike, the source gives them in different places.

What was measured:
[1] = biological target: T1, Des1 (h) (Homo sapiens, UniProt O15121); experiment: Measurement of Dihydroceramide Desaturase-1 (Des-1) activity in intact Jurkat cells labeled with DhCer-C6-NBD (HPLC); assay type: cell-based; conditions: for inhibition at 1 µM: Jurkat cells
T1 construct: endogenous in cells; host or cells: parental Jurkat cells
T1 sequence (O15121 1-323): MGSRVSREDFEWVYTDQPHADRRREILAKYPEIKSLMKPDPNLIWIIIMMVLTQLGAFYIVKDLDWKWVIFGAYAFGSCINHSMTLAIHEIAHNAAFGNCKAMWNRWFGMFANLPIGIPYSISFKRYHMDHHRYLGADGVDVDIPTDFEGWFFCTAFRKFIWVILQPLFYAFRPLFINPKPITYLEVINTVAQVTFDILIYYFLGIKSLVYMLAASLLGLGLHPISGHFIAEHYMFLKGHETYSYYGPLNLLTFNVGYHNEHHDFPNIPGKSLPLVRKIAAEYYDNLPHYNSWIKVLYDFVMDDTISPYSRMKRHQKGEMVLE
Method in brief: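 Intact parental Jurkat cells in 0.5% serum medium were labelled with DhCer-C6-NBD; cells harvested at 500×g and ceramides extracted. NBD-labelled substrate and product resolved by C18 reverse-phase HPLC and quantified by fluorescence (ex 465/em 530 nm) as a measure of Des-1 activity.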

[2] = T1/2 Human Liver Microsomes; assay type: in vitro ADME
Text: Some non-limiting illustrative examples are presented below in Table 3-1.

[3] = tested on: Connective Tissue Growth Factor (CTGF) gene expression; experiment: Real time quantitative PCR in TGFβ-stimulated human hepatic stellate cells (LX2) to detect CTGF gene expression; assay type: cell-based; conditions: CTGF mRNA in TGFβ-stimulated LX2 cells vs vehicle control; for inhibition at 1 µM: LX-2, 1 μM; for inhibition at 10 µM: LX-2, 10 μM; for inhibition at 5 µM: LX-2, 5 μM
Experimental: Real Time Quantitative Polymerase Chain Reaction in Human Hepatic Stellate Cells (LX2) to Detect Connective Tissue Growth Factor (CTGF) Gene Expression The hepatic stellate cell line, LX2 was maintained in DMEM (LifeTechnologies) with 2% heat-inactivated FBS, 100U penicillin (LifeTechnologies), 0.1 mg/mL streptomycin (LifeTechnologies), and 2 mM L-glutamine (LifeTechnologies) at 37° C. with 5% CO2. Cells were seeded into 6-well plates (200,000 cells per well, 2 mLs media) and grown overnight. The cells were changed to 2 mLs 0.5% FBS media for 24 hours prior to treatment. Treatments were added in 2 mLs fresh 0.5% FBS media (vehicle control, long/mL TGFβ alone (R&D Systems), 10 ng/mL TGFβ+inhibitors) and incubated for 24 hours. […] RNA was extracted using Qiagen RNeasy kit (cat #74104), according to manufacturer's instructions. RNA (1 μg) was used to generate cDNA using the Qiagen Quantitect Reverse Transcription Kit (cat #205311), and stored at -20° C. cDNA was diluted (1:25 final) and combined with Sybr Green (Qiagen cat #204143), forward and reverse primers (50 ng each) and run on Real Time PCR Thermocycler machine (RG-6000, Corbett) with the following PCR conditions: Hold 1: 50° C. for 2 min; Hold 2: 95° C. for 15 min; Cycling: 45 cycles of: 95° C. for 30 sec, 58° C. for 21 sec, 72° C. for 15 sec, Hold 3: 72° C. for 30 sec, Melt: 72° C. to 99° C. GAPDH primers (Forward: [NT]; Reverse: [NT] primers (Forward: [NT]; Reverse: [NT] primers available from Origene, cat #HP205671)].

[4] = Table 3-1, comparison of W ring with and without nitrogen, read-out: Des1 IC50
[5] = intact Jurkat cells, given as concentration range, or <X / >X if measured at one concentration X only, read-out: Des1 (h) Jurkat IC50

Compound | IC50 [1, 4] [nM] | half-life [2] [min] | IC50 [1, 5] [nM] | inhibition at 1 µM [1] [%] | inhibition at 1 µM [3] [%] | inhibition at 10 µM [3] [%] | inhibition at 5 µM [3] [%]
N/C(=N\O)c1ccc(Nc2ncc(-c3ccc(OC(F)(F)F)cc3)o2)cn1 [Compound 118, N′-Hydroxy-5-((5-(4-(trifluoromethoxy)phenyl)oxazol-2-yl)amino)picolinimidamide] |  |  | < 1000 |  | 50 to 60 | 70 to 80 | 
N/C(=N\O)c1ccc(Nc2ncc(-c3ccc(C4CC4)cc3)o2)cn1 [Compound 120, 5-((5-(4-Cyclopropylphenyl)oxazol-2-yl)amino)-N′-hydroxypicolinimidamide] |  |  | > 1000 | 10 | 40 to 50 | 40 to 50 | 
N/C(=N\O)c1ccc(Nc2ncn(-c3ccc(C(F)(F)F)cc3)n2)cn1 [Example 24, N′-Hydroxy-5-((1-(4-(trifluoromethyl)phenyl)-1H-1,2,4-triazol-3yl)amino)picolinimidamide] |  |  | 10 to 100 |  |  |  | 50 to 60
N/C(=N\O)c1cnc(Nc2ncc(-c3ccc(C(F)(F)F)cn3)o2)cn1 [Example 57, N′-Hydroxy-5-((5-(5-(trifluoromethyl)pyridin-2-yl)oxazol-2-yl)amino)pyrazine-2-carboximidamide] |  |  | < 1000 |  | 1 to 10 | 50 to 60 | 
N/C(=N/O)c1cnc(Nc2ncc(-c3ccc(OC(F)(F)F)cc3)o2)cn1 [Example 70, N′-Hydroxy-5-((5-(4-(trifluoromethoxy)phenyl)oxazol-2-yl)amino)pyrazine-2-carboximidamide] |  |  | < 1000 |  |  |  | > 90
N/C(=N\O)c1ccc(Nc2cnn(-c3ccc(C(F)(F)F)cn3)c2)cn1 [Example 72, N′-Hydroxy-5-((1-(5-(trifluoromethyl)pyridin-2-yl)-1H-pyrazol-4-yl)amino)picolinimidamide] |  |  | < 1000 |  | 40 to 50 |  | 50 to 60
N/C(=N\O)c1ccc(Nc2ccn(-c3ccc(C(F)(F)F)cn3)n2)cn1 [Example 73, N′-Hydroxy-5-((1-(5-(trifluoromethyl)pyridin-2-yl)-1H-pyrazol-3-yl)amino)picolinimidamide] |  |  | < 1000 |  |  |  | > 90
N/C(=N\O)c1ccc(Nc2ccn(-c3ccc(C(F)(F)F)cc3)n2)cn1 [Example 74, N′-Hydroxy-5-((1-(4-(trifluoromethyl)phenyl)-1H-pyrazol-3-yl)amino)picolinimidamide] |  |  | < 1000 |  |  |  | 80 to 90
N/C(=N/O)c1ccc(Nc2cc(-c3ccc(C(F)(F)F)cn3)no2)cn1 [Example 75, N′-Hydroxy-5-((3-(5-(trifluoromethyl)pyridin-2-yl)isoxazol-5-yl)amino)picolinimidamide] |  |  | < 1000 |  |  |  | > 90
N/C(=N\O)c1ccc(Nc2nc(-c3ccc(C(F)(F)F)cc3)no2)cn1 [Example 82, N′-hydroxy-5-((3-(4-(trifluoromethyl)phenyl)-1,2,4-oxadiazol-5-yl)amino)picolinimidamide] |  |  | < 1000 |  |  |  | > 90
N/C(=N\O)c1ccc(Nc2nc(-c3ccc(C(F)(F)F)cn3)no2)cn1 [Example 84, N′-Hydroxy-5-((3-(5-(trifluoromethyl)pyridin-2-yl)-1,2,4-oxadiazol-5-yl)amino)picolinimidamide] |  |  | > 1000 | 45 |  |  | 80 to 90
N/C(=N\O)c1ccc(Nc2nc(-c3ccc(OC(F)(F)F)cc3)no2)cn1 [Example 86, N′-Hydroxy-5-((3-(4-(trifluoromethoxy)phenyl)-1,2,4-oxadiazol-5-yl)amino)picolinimidamide] |  |  | < 1000 |  |  |  | > 90
N/C(=N\O)c1ccc(Nc2cc(-c3ccc(C(F)(F)F)cc3)no2)cn1 [Example 89, N′-hydroxy-5-((3-(4-(trifluoromethyl)phenyl)isoxazol-5-yl)amino)picolinimidamide] |  |  | < 1000 |  |  |  | > 90
N/C(=N\O)c1ccc(Nc2ncn(-c3ccc(C(F)(F)F)cc3)n2)cn1 [drawing 416] | 70 to 80 | 170 to 180 |  |  |  |  | 
N=C(NO)c1ccc(Nc2ncc(-c3ccc(C(F)(F)F)cn3)o2)cn1 [drawing 417] | 400 to 500 | 190 to 200 |  |  |  |  | 

The next lines start with results.

IC50 [1, 4] [nM] | half-life [2] [min] | IC50 [1, 5] [nM] | inhibition at 1 µM [1] [%] | Compound | inhibition at 1 µM [3] [%] | inhibition at 10 µM [3] [%] | inhibition at 5 µM [3] [%]
800 to 1000 | 30 to 40 |  |  | N=C(NO)c1ccc(Nc2ncc(-c3ccc(C(F)(F)F)cc3)o2)cc1 |  |  | 
1 to 10 | 210 to 220 |  |  | O=C(NCC(O)CO)c1ccc(Nc2ncc(-c3ccc(C(F)(F)F)cc3)o2)cn1 (centres unmarked) |  |  | 
 |  | < 100 |  | CN(O)C(=O)c1ccc(Nc2ncc(-c3ccc(C(F)(F)F)cc3)o2)cn1 [Example 20, N-Nydroxy-N-methyl-5-((5-(4-(trifluoromethyl)phenyl)oxazol-2-yl)amino)picolinamide] | 10 to 20 | 70 to 80 | 
 |  | 1 to 10 |  | O=c1cc(Nc2ncc(-c3ccc(C(F)(F)F)cc3)o2)ccn1O [Example 23, 1-(Hydroxy)-4-((5-(4-(trifluoromethyl)phenyl)oxazol-2-yl)amino)pyridin-2(1H)-one] | 30 to 40 | > 90 | 
 |  | < 1000 |  | Oc1cnc(Nc2ncc(-c3ccc(C(F)(F)F)cc3)o2)cc1O [Example 29, 6-((5-(4-(Trifluoromethyl)phenyl)oxazol-2-yl)amino)pyridine-3,4-diol] | > 90 | > 90 | 
 |  | 1 to 10 |  | N/C(=N\O)c1nnc(Nc2ncc(-c3ccc(C(F)(F)F)cc3)o2)cc1O [Example 42, N′,4-Dihydroxy-6-((5-(4-(trifluoromethyl)phenyl)oxazol-2-yl)amino)pyridazine-3-carboximidamide] | 10 to 20 | 40 to 50 | 
 |  | 100 to 1000 |  | N/C(=N\O)c1cnc(Nc2ncc(-c3ccc(C(F)(F)F)cc3)o2)cn1 [Example 54, N′-Hydroxy-5-((5-(4-(trifluoromethyl)phenyl)oxazol-2-yl)amino)pyrazine-2-carboximidamide] | 70 to 80 | 80 to 90 | 
 |  | < 1000 |  | N/C(=N\O)c1ncc(Nc2ncc(-c3ccc(C(F)(F)F)cc3)o2)cn1 [Example 55, N′-Hydroxy-5-((5-(4-(trifluoromethyl)phenyl)oxazol-2-yl)amino)pyrimidine-2-carboximidamide] | 20 to 30 | 40 to 50 | 
100 to 200 | 90 to 100 |  |  | N=C(NO)c1ccc(Nc2ncc(-c3ccc(C(F)(F)F)cc3)o2)cn1 [drawing 414] |  |  | 
1 to 10 | 150 to 170 |  |  | N/C(=N\O)c1ccc(Nc2ncc(-c3ccc(C(F)(F)F)cc3)o2)nn1 [drawing 418] |  |  | 
